Patent publication US7745574B2, “Compounds that regulate apoptosis” (The Burnham Institute, priority 2005, dated 2010)
[ ]: non-standard residue; d: D form. Ahx = NCCCCCC(=O)O

Tested on: not listed separately
Test: Induction of apoptosis by Nur77 peptides, cell line not stated
Format: cell-based
Conditions: not given
Method: Apoptosis assays—For nuclear morphological change analysis, cells were trypsinized, washed with PBS, fixed with 3.7% paraformaldehyde, and stained with DAPI (4,6-diamidino-2-phenylindole) (50 μg/ml) to visualize the nuclei by UV-microscopy. The percentages of apoptotic cells were determined by counting 300 GFP-positive cells, scoring cells having nuclear fragmentation and/or chromatin condensation.

Substance | induction of apoptosis
acetyl------------FYLKLEDLVGXrrrrrrrr-amide (Ac-FYLKLEDLVG[Ahx][dR][dR][dR][dR][dR][dR][dR][dR]-NH2; SMILES CC(=O)N[C@@H](Cc1ccccc1)C(=O)N[C@@H](Cc1ccc(O)cc1)C(=O)N[C@@H](CC(C)C)C(=O)N[C@@H](CCCCN)C(=O)N[C@@H](CC(C)C)C(=O)N[C@@H](CCC(=O)O)C(=O)N[C@@H](CC(=O)O)C(=O)N[C@@H](CC(C)C)C(=O)N[C@H](C(=O)NCC(=O)NCCCCCC(=O)N[C@H](CCCNC(=N)N)C(=O)N[C@H](CCCNC(=N)N)C(=O)N[C@H](CCCNC(=N)N)C(=O)N[C@H](CCCNC(=N)N)C(=O)N[C@H](CCCNC(=N)N)C(=O)N[C@H](CCCNC(=N)N)C(=O)N[C@H](CCCNC(=N)N)C(=O)N[C@H](CCCNC(=N)N)C(N)=O)C(C)C) [SEQ ID NO: 18] | apoptotic
acetyl------------llshlsrsfGXrrrrrrrr-amide (Ac-[dL][dL][dS][dH][dL][dS][dR][dS][dF]G[Ahx][dR][dR][dR][dR][dR][dR][dR][dR]-NH2; SMILES CC(=O)N[C@H](CC(C)C)C(=O)N[C@H](CC(C)C)C(=O)N[C@H](CO)C(=O)N[C@H](Cc1c[nH]cn1)C(=O)N[C@H](CC(C)C)C(=O)N[C@H](CO)C(=O)N[C@H](CCCNC(=N)N)C(=O)N[C@H](CO)C(=O)N[C@H](Cc1ccccc1)C(=O)NCC(=O)NCCCCCC(=O)N[C@H](CCCNC(=N)N)C(=O)N[C@H](CCCNC(=N)N)C(=O)N[C@H](CCCNC(=N)N)C(=O)N[C@H](CCCNC(=N)N)C(=O)N[C@H](CCCNC(=N)N)C(=O)N[C@H](CCCNC(=N)N)C(=O)N[C@H](CCCNC(=N)N)C(=O)N[C@H](CCCNC(=N)N)C(N)=O) [Nur77/1(retro-inverso)] | apoptotic
acetyl------------FGDWIDSILGXrrrrrrrr-amide (Ac-FGDWIDSILG[Ahx][dR][dR][dR][dR][dR][dR][dR][dR]-NH2; SMILES CC[C@H](C)[C@H](NC(=O)[C@H](CO)NC(=O)[C@H](CC(=O)O)NC(=O)[C@@H](NC(=O)[C@H](Cc1c[nH]c2ccccc12)NC(=O)[C@H](CC(=O)O)NC(=O)CNC(=O)[C@H](Cc1ccccc1)NC(C)=O)[C@@H](C)CC)C(=O)N[C@@H](CC(C)C)C(=O)NCC(=O)NCCCCCC(=O)N[C@H](CCCNC(=N)N)C(=O)N[C@H](CCCNC(=N)N)C(=O)N[C@H](CCCNC(=N)N)C(=O)N[C@H](CCCNC(=N)N)C(=O)N[C@H](CCCNC(=N)N)C(=O)N[C@H](CCCNC(=N)N)C(=O)N[C@H](CCCNC(=N)N)C(=O)N[C@H](CCCNC(=N)N)C(N)=O) [SEQ ID NO: 16] | apoptotic
acetyl------------LLSHLSRSFGXrrrrrrrr-amide (Ac-LLSHLSRSFG[Ahx][dR][dR][dR][dR][dR][dR][dR][dR]-NH2; not fully specified; printed as acetyl------------LLSHLSRSFGXrrrrrrrr-amide) [Nur77/1 (inverso)] | apoptotic
acetyl---F——L_LLGXrrrrrrrr-amide (Ac-FLLLG[Ahx][dR][dR][dR][dR][dR][dR][dR][dR]-NH2; SMILES CC(=O)N[C@@H](Cc1ccccc1)C(=O)N[C@@H](CC(C)C)C(=O)N[C@@H](CC(C)C)C(=O)N[C@@H](CC(C)C)C(=O)NCC(=O)NCCCCCC(=O)N[C@H](CCCNC(=N)N)C(=O)N[C@H](CCCNC(=N)N)C(=O)N[C@H](CCCNC(=N)N)C(=O)N[C@H](CCCNC(=N)N)C(=O)N[C@H](CCCNC(=N)N)C(=O)N[C@H](CCCNC(=N)N)C(=O)N[C@H](CCCNC(=N)N)C(=O)N[C@H](CCCNC(=N)N)C(N)=O) [SEQ ID NO: 40] | apoptotic
acetyl------------FAALSALVLGXrrrrrrrr-amide (Ac-FAALSALVLG[Ahx][dR][dR][dR][dR][dR][dR][dR][dR]-NH2; SMILES CC(=O)N[C@@H](Cc1ccccc1)C(=O)N[C@@H](C)C(=O)N[C@@H](C)C(=O)N[C@@H](CC(C)C)C(=O)N[C@@H](CO)C(=O)N[C@@H](C)C(=O)N[C@@H](CC(C)C)C(=O)N[C@H](C(=O)N[C@@H](CC(C)C)C(=O)NCC(=O)NCCCCCC(=O)N[C@H](CCCNC(=N)N)C(=O)N[C@H](CCCNC(=N)N)C(=O)N[C@H](CCCNC(=N)N)C(=O)N[C@H](CCCNC(=N)N)C(=O)N[C@H](CCCNC(=N)N)C(=O)N[C@H](CCCNC(=N)N)C(=O)N[C@H](CCCNC(=N)N)C(=O)N[C@H](CCCNC(=N)N)C(N)=O)C(C)C) [SEQ ID NO: 17] | apoptotic

Tested on: H460 lung cancer cells
Test: Apoptosis in H460 lung cancer cells
Format: cell-based
Conditions: alanine scan, H460 lung cancer cells

Substance | apoptotic effect of alanine-substituted Nur77-9
acetyl-FSRSLHSALGXrrrrrrrr-amide (Ac-FSRSLHSALG[Ahx][dR][dR][dR][dR][dR][dR][dR][dR]-NH2; SMILES CC(=O)N[C@@H](Cc1ccccc1)C(=O)N[C@@H](CO)C(=O)N[C@@H](CCCNC(=N)N)C(=O)N[C@@H](CO)C(=O)N[C@@H](CC(C)C)C(=O)N[C@@H](Cc1c[nH]cn1)C(=O)N[C@@H](CO)C(=O)N[C@@H](C)C(=O)N[C@@H](CC(C)C)C(=O)NCC(=O)NCCCCCC(=O)N[C@H](CCCNC(=N)N)C(=O)N[C@H](CCCNC(=N)N)C(=O)N[C@H](CCCNC(=N)N)C(=O)N[C@H](CCCNC(=N)N)C(=O)N[C@H](CCCNC(=N)N)C(=O)N[C@H](CCCNC(=N)N)C(=O)N[C@H](CCCNC(=N)N)C(=O)N[C@H](CCCNC(=N)N)C(N)=O) [SEQ ID NO: 63] | largely impaired
acetyl-FSRSLHSLAGXrrrrrrrr-amide (Ac-FSRSLHSLAG[Ahx][dR][dR][dR][dR][dR][dR][dR][dR]-NH2; SMILES CC(=O)N[C@@H](Cc1ccccc1)C(=O)N[C@@H](CO)C(=O)N[C@@H](CCCNC(=N)N)C(=O)N[C@@H](CO)C(=O)N[C@@H](CC(C)C)C(=O)N[C@@H](Cc1c[nH]cn1)C(=O)N[C@@H](CO)C(=O)N[C@@H](CC(C)C)C(=O)N[C@@H](C)C(=O)NCC(=O)NCCCCCC(=O)N[C@H](CCCNC(=N)N)C(=O)N[C@H](CCCNC(=N)N)C(=O)N[C@H](CCCNC(=N)N)C(=O)N[C@H](CCCNC(=N)N)C(=O)N[C@H](CCCNC(=N)N)C(=O)N[C@H](CCCNC(=N)N)C(=O)N[C@H](CCCNC(=N)N)C(=O)N[C@H](CCCNC(=N)N)C(N)=O) [SEQ ID NO: 64] | largely impaired
acetyl-FSRSAHSLLGXrrrrrrrr-amide (Ac-FSRSAHSLLG[Ahx][dR][dR][dR][dR][dR][dR][dR][dR]-NH2; SMILES CC(=O)N[C@@H](Cc1ccccc1)C(=O)N[C@@H](CO)C(=O)N[C@@H](CCCNC(=N)N)C(=O)N[C@@H](CO)C(=O)N[C@@H](C)C(=O)N[C@@H](Cc1c[nH]cn1)C(=O)N[C@@H](CO)C(=O)N[C@@H](CC(C)C)C(=O)N[C@@H](CC(C)C)C(=O)NCC(=O)NCCCCCC(=O)N[C@H](CCCNC(=N)N)C(=O)N[C@H](CCCNC(=N)N)C(=O)N[C@H](CCCNC(=N)N)C(=O)N[C@H](CCCNC(=N)N)C(=O)N[C@H](CCCNC(=N)N)C(=O)N[C@H](CCCNC(=N)N)C(=O)N[C@H](CCCNC(=N)N)C(=O)N[C@H](CCCNC(=N)N)C(N)=O) [SEQ ID NO: 62] | largely impaired
acetyl-ASRSLHSLLGXmmrrr-amide [SEQ ID NO: 61] | largely impaired

Target: T1, Bcl-2 (Homo sapiens, UniProt P10415)
Test: Co-immunoprecipitation with Bcl-2 in HEK293T cells
Format: binding
Set-up: expressed in transfected cells; host or cells: HEK293T
Conditions: peptide added
Method: Nur77 peptide binds anti-apoptotic Bcl-2 family members. Nur77-peptide binds Bcl-B, Bfl-1, and Bcl-2, but not Mcl-1 and Bcl-xL. […] The expression vector for the GFP-Nur77/489-497 fusion was transfected into HEK293T cells together with or without the indicated expression vector for myc-tagged Bcl-2 family member. Cell lysates were prepared and analyzed for interaction of Nur77/489-497 with Bcl-2 family members by co-immunoprecipitation assay using anti-Myc antibody. Immunoprecipitates were then separated on SDS/PAGE and immunoblotted using anti-GFP antibody. […] Nur77/Bcl-2 interaction assays—Reporter gene assays using NurRE-tk-CAT in CV-1 cells, and GST pull-down assay were described previously (Li, et al. 2000 Science 289:1159-1164). For the mammalian two-hybrid assays, CV-1 cells were co-transfected with pcDNA-Gal4TAD-Nur77 or pcDNA-Gal4TAD-Nur77/ΔDBD and pcDNA-Gal4 DBD-Bcl-2/ΔTM along with a luciferase reporter gene driven by four copies of the Gal-4-binding site. The cells were harvested and reporter gene activity was measured. For Co-IP assays, HEK293T cells were transiently transfected with various expression plasmids using a modified calcium phosphate precipitation method (Wu et al, 1997) in the presence of caspase inhibitors (zVAD-fmk) to prevent degradation of Nur77 protein due to apoptosis. Cells were suspended in lysis buffer (50 mM Tris-HCl, PH7.4; 150 mM NaCl; 20 mM EDTA; 1% NP-40; 1 mM PMSF; 50 μg/ml Leupeptin; […]; 0.1 mM Na3VO4; and 1 mM DTT). Cells extracts were cleared by incubation with the Protein A/G plus Agarose beads (Santa Cruz) and then incubated with appropriate antibody and 30 μl of Protein A or G plus Agarose beads overnight at 4° C. […] Immunoreactive products were detected by chemiluminescence with an enhanced chemiluminescence system (ECL) (Amersham).

T1 sequence (P10415 whole entry): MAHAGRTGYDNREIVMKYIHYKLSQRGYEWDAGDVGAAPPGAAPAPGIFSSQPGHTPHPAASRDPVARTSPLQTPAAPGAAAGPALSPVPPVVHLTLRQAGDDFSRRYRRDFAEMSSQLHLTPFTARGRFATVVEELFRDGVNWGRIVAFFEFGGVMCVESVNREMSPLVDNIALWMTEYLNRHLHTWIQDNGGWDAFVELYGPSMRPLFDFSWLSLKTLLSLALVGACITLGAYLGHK

Substance | inhibition of co-precipitation of GFP-Nur77/489-497 with Bcl-2
Smac-peptide-r8: Smac peptide conjugated with r8, apoptosis-inducing comparison peptide (Ac-AVPIAQKC[Ahx][dR][dR][dR][dR][dR][dR][dR][dR]-NH2; also: Cys thiol joined to chloroacetyl-Ahx by thioether) [reference compound] | not

Target: T1, Bcl-2
Test: Bcl-2 conformational change, anti-Bcl-2/BH3 antibody staining of HEK293T cells transfected with Bcl-2
Format: cell-based
Set-up: expressed in transfected cells; host or cells: HEK293T
Conditions: flow cytometry
Method: Such a Bcl-2 conformation is recognized by an anti-Bcl-2 antibody raised against the Bcl-2 BH3 domain. To determine whether NuBCP-9 induced a Bcl-2 conformational change, flow cytometric assays were conducted which HEK293T cells transfected with Bcl-2 were exposed to NuBCPs and subsequently stained with the anti-Bcl-2/BH3 antibody.

Substance | Bcl-2 immunofluorescence by anti-Bcl-2/BH3 antibody
Smac-peptide-r8: Smac peptide conjugated with r8, apoptosis-inducing comparison peptide (Ac-AVPIAQKC[Ahx][dR][dR][dR][dR][dR][dR][dR][dR]-NH2; also: Cys thiol joined to chloroacetyl-Ahx by thioether) [reference compound] | did not show any Bcl-2 immunofluorescence
